PubChem BioAssay (NCI)
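Method: 48-hour compound exposure of cells in 96-well plates, five concentrations, linear interpolation of endpoints. At the GI50, growth is halved. At the TGI there is no net growth.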

What was measured:
Assay in all cases: growth of human tumour cells (NCI), 48 h
NCI-H23 lung = tested on: NCI-H23 lung
NCI-H460 lung = tested on: NCI-H460 lung
NCI-H522 lung = tested on: NCI-H522 lung
NCI/ADR-RES ovarian = tested on: NCI/ADR-RES ovarian
OVCAR-3 ovarian = tested on: OVCAR-3 ovarian
OVCAR-4 ovarian = tested on: OVCAR-4 ovarian
OVCAR-5 ovarian = tested on: OVCAR-5 ovarian
OVCAR-8 ovarian = tested on: OVCAR-8 ovarian
PC-3 prostate = tested on: PC-3 prostate
RPMI-8226 leukemia = tested on: RPMI-8226 leukemia
RXF 393 renal = tested on: RXF 393 renal
SF-268 CNS = tested on: SF-268 CNS
SF-295 CNS = tested on: SF-295 CNS
SF-539 CNS = tested on: SF-539 CNS
SK-MEL-2 melanoma = tested on: SK-MEL-2 melanoma
SK-MEL-28 melanoma = tested on: SK-MEL-28 melanoma
SK-MEL-5 melanoma = tested on: SK-MEL-5 melanoma
SK-OV-3 ovarian = tested on: SK-OV-3 ovarian
SN12C renal = tested on: SN12C renal
SNB-19 CNS = tested on: SNB-19 CNS
SNB-75 CNS = tested on: SNB-75 CNS
SR leukemia = tested on: SR leukemia
SW-620 colon = tested on: SW-620 colon
T-47D breast = tested on: T-47D breast
TK-10 renal = tested on: TK-10 renal
U251 CNS = tested on: U251 CNS
UACC-257 melanoma = tested on: UACC-257 melanoma
UACC-62 melanoma = tested on: UACC-62 melanoma
UO-31 renal = tested on: UO-31 renal

For `C[C@@H](NC(=O)[C@@H](CC(=O)N1CCC(N2CCCCC2)CC1)N1C(=O)[C@@H](N2C(=O)OC[C@@H]2c2ccccc2)[C@H]1/C=C/c1cccc(Cl)c1)c1ccccc1`, the GI50 (NCI-H23 lung) was 3.85 µM, the TGI (NCI-H23 lung) was 15.5 µM and the GI50 (NCI-H460 lung) was 2.02 µM. It also gave a TGI (NCI-H460 lung) of 3.95 µM, a GI50 (NCI-H522 lung) of 1.79 µM and a TGI (NCI-H522 lung) of 4.14 µM. For the same molecule, the GI50 (NCI/ADR-RES ovarian) was 5.92 µM, the TGI (NCI/ADR-RES ovarian) was 24.8 µM and the GI50 (OVCAR-3 ovarian) was 1.99 µM. For the same molecule, the TGI (OVCAR-3 ovarian) was 4.49 µM, the GI50 (OVCAR-4 ovarian) was 10.5 µM and the TGI (OVCAR-4 ovarian) was 24.8 µM. It also gave a GI50 (OVCAR-5 ovarian) of 5.78 µM, a TGI (OVCAR-5 ovarian) of 20.9 µM and a GI50 (OVCAR-8 ovarian) of 4.3 µM. For the same molecule, the TGI (OVCAR-8 ovarian) was 16.6 µM, the GI50 (PC-3 prostate) was 5.37 µM and the TGI (PC-3 prostate) was 18.9 µM. It also gave a GI50 (RPMI-8226 leukemia) of 2.93 µM, a TGI (RPMI-8226 leukemia) of 8.32 µM and a GI50 (RXF 393 renal) of 2.15 µM. It also gave a TGI (RXF 393 renal) of 3.98 µM, a GI50 (SF-268 CNS) of 2.31 µM and a TGI (SF-268 CNS) of 7.21 µM. It also gave a GI50 (SF-295 CNS) of 1.84 µM, a TGI (SF-295 CNS) of 3.91 µM and a GI50 (SF-539 CNS) of 1.76 µM. The TGI (SF-539 CNS) was 3.38 µM, the GI50 (SK-MEL-2 melanoma) was 2.25 µM and the TGI (SK-MEL-2 melanoma) was 5.36 µM. It also gave a GI50 (SK-MEL-28 melanoma) of 1.8 µM, a TGI (SK-MEL-28 melanoma) of 3.63 µM and a GI50 (SK-MEL-5 melanoma) of 1.85 µM. It also gave a TGI (SK-MEL-5 melanoma) of 3.34 µM, a GI50 (SK-OV-3 ovarian) of 12.9 µM and a TGI (SK-OV-3 ovarian) of 27.5 µM. The GI50 (SN12C renal) was 2.9 µM, the TGI (SN12C renal) was 8.85 µM and the GI50 (SNB-19 CNS) was 2.77 µM. The TGI (SNB-19 CNS) was 7.57 µM, the GI50 (SNB-75 CNS) was 1.71 µM and the TGI (SNB-75 CNS) was 4.09 µM. For the same molecule, the GI50 (SR leukemia) was 2.61 µM, the TGI (SR leukemia) was 7.78 µM and the GI50 (SW-620 colon) was 2.06 µM. For the same molecule, the TGI (SW-620 colon) was 4.7 µM, the GI50 (T-47D breast) was 1.9 µM and the TGI (T-47D breast) was 4.33 µM. The GI50 (TK-10 renal) was 1.92 µM, the TGI (TK-10 renal) was 4.76 µM and the GI50 (U251 CNS) was 2.03 µM. The TGI (U251 CNS) was 4.06 µM, the GI50 (UACC-257 melanoma) was 1.93 µM and the TGI (UACC-257 melanoma) was 3.84 µM. It also gave a GI50 (UACC-62 melanoma) of 1.95 µM, a TGI (UACC-62 melanoma) of 3.88 µM and a GI50 (UO-31 renal) of 2.03 µM. The TGI (UO-31 renal) was 5.35 µM.
